According to paper PMC8125234, “Cardiolipin Stabilizes and Increases Catalytic Efficiency of Carnitine Palmitoyltransferase II and Its Variants S113L, P50H, and Y479F” (International Journal of Molecular Sciences, 2021):
Changes are numbered by the printed parent chain.

Tests used:
CPT II variant S113L = target: T1, CPT II variant S113L (Homo sapiens, UniProt P23786, S113L); parameters: method as in PMID 13534673; settings: cited from earlier work
T1 construct: made in house; host or cells: Escherichia coli BL21Gold DE
T1 sequence (P23786 26-658 S113L): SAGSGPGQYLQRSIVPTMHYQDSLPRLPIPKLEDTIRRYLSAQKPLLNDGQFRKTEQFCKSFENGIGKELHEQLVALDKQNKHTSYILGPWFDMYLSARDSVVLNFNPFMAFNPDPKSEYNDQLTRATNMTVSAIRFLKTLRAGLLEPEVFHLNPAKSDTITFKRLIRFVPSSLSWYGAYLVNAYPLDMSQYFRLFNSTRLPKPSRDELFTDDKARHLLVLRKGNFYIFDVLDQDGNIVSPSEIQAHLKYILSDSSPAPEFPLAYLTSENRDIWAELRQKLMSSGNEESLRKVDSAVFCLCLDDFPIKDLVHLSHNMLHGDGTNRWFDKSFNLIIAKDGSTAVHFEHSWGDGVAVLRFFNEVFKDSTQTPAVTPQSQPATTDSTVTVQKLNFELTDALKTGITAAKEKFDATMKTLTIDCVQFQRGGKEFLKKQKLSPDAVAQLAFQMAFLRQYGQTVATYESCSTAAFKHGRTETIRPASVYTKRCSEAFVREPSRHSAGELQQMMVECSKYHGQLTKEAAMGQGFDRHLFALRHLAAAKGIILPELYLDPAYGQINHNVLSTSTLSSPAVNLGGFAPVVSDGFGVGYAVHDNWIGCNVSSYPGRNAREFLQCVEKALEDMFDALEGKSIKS

CPT II variant Y479F = target: T2, CPT II variant Y479F (Homo sapiens, UniProt P23786, Y479F); experiment: Influence of CL on the enzyme activity; assay type: biochemical
T2 construct: made in house; host or cells: Escherichia coli BL21Gold DE
T2 sequence (P23786 26-658 Y479F): T1 sequence (P23786 26-658 S113L) with L88S, Y454F
Protocol: (§1) Then, the effect of CL, as a potential stabilizing agent, was investigated in the activity assay. Therefore, 0.1 mg/mL recombinant enzyme was incubated with various concentrations of CL (0.125, 0.25 or 0.5 mM) or buffer at 30 and 42 °C, respectively.
(§2) Before activity measurements, the storage buffer of the enzymes was replaced with assay buffer (50 mM KH2PO4, 120 mM KCl, 1 mM EDTA-Na4) using vivaspin turbo 4 tubes (Satorius Stedim biotech GmbH, Göttingen, Germany) at 4 °C. The pH of assay buffer was adjusted with KOH to 7.4. The storage buffer was diluted at least 1:500 in assay buffer. In addition, before each experimental set up, the protein samples were centrifuged at 16,000× g for 5 min at 4 °C to remove any micro-aggregates. After that, the protein concentration was determined using bicinchoninic acid (BCA) protein assay kit (Thermo Fisher Scientific GmbH, Berlin, Germany). The enzyme activity of recombinant CPT II was performed following Rufer et al. with modifications described elsewhere. […] After pre-conditioning the mixture to 25 °C for 2 min, the reaction was started by adding 15 nM of recombinant enzyme. The reverse reaction of CPT II was detected with the enzyme activity assay. CPT II catalyzed the transfer of fatty acid residue from Pal-CoA to L-carnitine with release of CoA and Pal-carnitine. The released CoA was then detected by the reaction of the free thiol group with DTNB, forming 5-mercapto-(2-nitrobenzoic acid). This compound has a molar extinction coefficient of 13,600 M^−1 cm^−1 at a wavelength of 410 nm, and its formation was followed spectroscopically. […] The slope of the progress curve was used to determine the reaction velocity.
(§3) The purified enzymes were incubated at different temperatures (30, 37, 40 and 42 °C) using a protein concentration of 1 mg/mL during the incubation periods to investigated the half-lives of WT and variants. 0.1 mg/mL enzyme was incubated with or without CL (0.125, 0.25 and 0.5 mM) in the assay buffer. The enzyme activities were determined by adding 15 nM of pre-incubated enzyme according to Section 4.3 after various incubation times up to 60 min at an assay temperature of 25 °C. Experiments were done at least three times independently as double determination.

CPT II WT = target: T3, CPT II WT (Homo sapiens, UniProt P23786); experiment: Influence of CL on the enzyme activity; assay type: biochemical; settings: for Maximal Enzymatic Activity: w/o CL = 100
T3 construct: made in house; host or cells: Escherichia coli BL21Gold DE
T3 sequence (P23786 26-658): T1 sequence (P23786 26-658 S113L) with L88S
Protocol: as §1, §2, §3

Substance: Cardiolipin [CL]
- Effect of CL on enzyme activity (CPT II variant S113L): no benefit
- Increase of the enzymatic activity by CL (CPT II variant Y479F): 1.8 fold
- Maximal Enzymatic Activity (CPT II variant Y479F; 0.5 mM CL, w/o CL = 100): 151.7 ± 7.6%
- Enzymatic activity in the presence of CL (CPT II variant Y479F; before incubation periods): 175%
- Increase of the enzymatic activity by CL (CPT II WT): 1.5 fold
- Maximal Enzymatic Activity (CPT II WT; 0.25 mM CL): 152.3 ± 5.5%
- Maximal Enzymatic Activity (CPT II WT; 0.5 mM CL): 135.9 ± 4.7%
- Enzymatic activity in the presence of CL (CPT II WT; 0.25 and 0.5 mM CL, before incubation periods): up to 150%
